Experimental data as given in PubChem BioAssay AID256 (DTP/NCI, 2004).
Toxic doses and inconclusive results are not listed. Residues, ends and D or L forms follow the SMILES beside them. *: point of attachment. Octanoyl = CCCCCCCC(=O)*

Test system: CD2F1 mice, L1210 leukemia ip, survival T/C
Test: NCI In Vivo Anticancer Drug Screen. Data for tumor model L1210 Leukemia (intraperitoneal) in CD2F1 (CDF1) mice
Settings: higher = longer survival
Summary of the method: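 In this screen, transplantable tumors were grown in mice given either the compound or its vehicle. Results were expressed as the treated measurement relative to the control measurement.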

[1] = endpoint: mean survival time, dose: 100.0 mg/kg/injection, schedule: Q04DX003 (ip), vehicle: saline with Tween-80
[2] = endpoint: mean survival time, dose: 200.0 mg/kg/injection, schedule: Q04DX003 (ip), vehicle: saline with Tween-80
[3] = endpoint: mean survival time, dose: 400.0 mg/kg/injection, schedule: Q04DX003 (ip), vehicle: saline with Tween-80
[4] = endpoint: mean survival time, dose: 100.0 mg/kg/injection, schedule: Q01DX009 (ip), vehicle: saline with Tween-80
[5] = endpoint: mean survival time, dose: 200.0 mg/kg/injection, schedule: Q01DX009 (ip), vehicle: saline with Tween-80
[6] = endpoint: mean survival time, dose: 400.0 mg/kg/injection, schedule: Q01DX009 (ip), vehicle: saline with Tween-80
[7] = endpoint: mean survival time, dose: 100.0 mg/kg/injection, schedule: Q01DX001 (ip), vehicle: saline
[8] = endpoint: mean survival time, dose: 200.0 mg/kg/injection, schedule: Q01DX001 (ip), vehicle: saline
[9] = endpoint: mean survival time, dose: 400.0 mg/kg/injection, schedule: Q01DX001 (ip), vehicle: saline
[10] = endpoint: mean survival time, dose: 100.0 mg/kg/injection, schedule: Q04DX003 (ip), vehicle: saline
[11] = endpoint: mean survival time, dose: 200.0 mg/kg/injection, schedule: Q04DX003 (ip), vehicle: saline
[12] = endpoint: mean survival time, dose: 400.0 mg/kg/injection, schedule: Q04DX003 (ip), vehicle: saline

With `CC1(CC#N)CO1` (stereo unspecified) the T/C [1] was 96 % of control, the T/C [2] was 96 % of control and the T/C [3] was 96 % of control.
For `Fc1c(F)c(F)c(Nc2c(F)c(F)c3c(F)c(F)c(F)c(F)c3c2F)c(F)c1F`, the T/C (endpoint: mean survival time, dose: 100.0 mg/kg/injection, schedule: Q01DX001 (ip), vehicle: saline with Tween-80) was 98 % of control, the T/C (endpoint: mean survival time, dose: 200.0 mg/kg/injection, schedule: Q01DX001 (ip), vehicle: saline with Tween-80) was 96 % of control and the T/C (endpoint: mean survival time, dose: 400.0 mg/kg/injection, schedule: Q01DX001 (ip), vehicle: saline with Tween-80) was 98 % of control.
With `CC(CC(=O)O)c1ccc(Cl)cc1` (stereo unspecified) the T/C [1] was 101 % of control, the T/C [2] was 101 % of control and the T/C [3] was 101 % of control.
For `COc1cc(C(C2=C(O)c3ccccc3C(=O)C2=O)C2=C(O)c3ccccc3C(=O)C2=O)cc(Br)c1O`, the T/C (endpoint: mean survival time, dose: 100.0 mg/kg/injection, schedule: Q01DX009 (ip), vehicle: alcohol) was 101 % of control and the T/C (endpoint: mean survival time, dose: 200.0 mg/kg/injection, schedule: Q01DX009 (ip), vehicle: alcohol) was 93 % of control.
In the case of `COc1ccc(-c2cc(-c3ccccc3)n[nH]2)cc1`, the T/C [1] was 93 % of control, the T/C [2] was 97 % of control and the T/C [3] was 93 % of control.
`CCOC(=O)CNC(=O)c1ccc(N(CCCl)CCCl)cc1` was tested, and the T/C (endpoint: mean survival time, dose: 100.0 mg/kg/injection, schedule: Q04DX003 (ip), vehicle: Klucel (hydroxypropylcellulose) (HPC)) was 95 % of control, the T/C (endpoint: mean survival time, dose: 200.0 mg/kg/injection, schedule: Q04DX003 (ip), vehicle: Klucel (hydroxypropylcellulose) (HPC)) was 96 % of control and the T/C (endpoint: mean survival time, dose: 400.0 mg/kg/injection, schedule: Q04DX003 (ip), vehicle: Klucel (hydroxypropylcellulose) (HPC)) was 104 % of control.
In the case of `O=C(NCCCCCCCCCCNC(=O)Nc1ccc(C2=NCCCN2)cc1)Nc1ccc(C2=NCCCN2)cc1`, the T/C (endpoint: mean survival time, dose: 5.0 mg/kg/injection, schedule: Q01DX009 (ip), vehicle: saline) was 103 % of control, the T/C (endpoint: mean survival time, dose: 8.0 mg/kg/injection, schedule: Q01DX009 (ip), vehicle: saline) was 117 % of control and the T/C (endpoint: mean survival time, dose: 19.0 mg/kg/injection, schedule: Q01DX009 (ip), vehicle: saline) was 121 % of control.
With `Cc1ccc(Nc2ccc(Nc3ccc(C)cc3)c3c2C(=O)c2ccccc2C3=O)cc1` the T/C [4] was 86 % of control, the T/C [5] was 89 % of control and the T/C [6] was 89 % of control.
For `Cc1ccc(S(=O)(=O)N/N=C/Cc2c(C(C)C)cc(C(C)C)cc2C(C)C)cc1`, the T/C (endpoint: median survival time, dose: 50.0 mg/kg/injection, schedule: Q04DX002 (ip), vehicle: saline with Tween-80) was 100 % of control, the T/C (endpoint: median survival time, dose: 100.0 mg/kg/injection, schedule: Q04DX002 (ip), vehicle: saline with Tween-80) was 100 % of control and the T/C (endpoint: median survival time, dose: 200.0 mg/kg/injection, schedule: Q04DX002 (ip), vehicle: saline with Tween-80) was 110 % of control. For the same compound, the T/C (endpoint: median survival time, dose: 400.0 mg/kg/injection, schedule: Q04DX002 (ip), vehicle: saline with Tween-80) was 100 % of control.
With `O=[N+]([O-])c1ccc(N/N=C(\CI)c2ccccc2)c([N+](=O)[O-])c1` the T/C (endpoint: mean survival time, dose: 100.0 mg/kg/injection, schedule: Q04DX003 (ip), vehicle: saline sonified) was 97 % of control, the T/C (endpoint: mean survival time, dose: 200.0 mg/kg/injection, schedule: Q04DX003 (ip), vehicle: saline sonified) was 109 % of control and the T/C (endpoint: mean survival time, dose: 400.0 mg/kg/injection, schedule: Q04DX003 (ip), vehicle: saline sonified) was 108 % of control.
`CCCCCCCC(=O)NCC(=O)NCC(=O)O` (Octanoyl-Gly-Gly-OH) was tested, and the T/C (endpoint: mean survival time, dose: 6.25 mg/kg/injection, schedule: Q01DX001 (ip), vehicle: Klucel (hydroxypropylcellulose) (HPC)) was 97 % of control, the T/C (endpoint: mean survival time, dose: 12.5 mg/kg/injection, schedule: Q01DX001 (ip), vehicle: Klucel (hydroxypropylcellulose) (HPC)) was 95 % of control and the T/C (endpoint: mean survival time, dose: 25.0 mg/kg/injection, schedule: Q01DX001 (ip), vehicle: Klucel (hydroxypropylcellulose) (HPC)) was 100 % of control. The T/C (endpoint: mean survival time, dose: 50.0 mg/kg/injection, schedule: Q01DX001 (ip), vehicle: Klucel (hydroxypropylcellulose) (HPC)) was 93 % of control.
In the case of `Nc1ncnc2c1ncn2CC(N)C(=O)O` (stereo unspecified), the T/C [7] was 103 % of control, the T/C [8] was 107 % of control and the T/C [9] was 105 % of control.
With `Cc1ccc(NC(=O)Nc2ccccc2Cl)c(C)c1` the T/C [1] was 102 % of control, the T/C [2] was 90 % of control and the T/C [3] was 93 % of control.
For `Cc1cccc(C(=O)NN)c1`, the T/C (endpoint: mean survival time, dose: 75.0 mg/kg/injection, schedule: Q01DX001 (ip), vehicle: saline) was 106 % of control.
For `O=C1c2ccccc2C(=O)c2cc(N3C(=O)C=CC3=O)ccc21`, the T/C [7] was 97 % of control and the T/C [8] was 96 % of control.
In the case of `Nc1nc(N)c2cc(CNc3ccc(C(=O)NC(C(=O)O)C(=O)O)cc3)ccc2n1`, the T/C (endpoint: mean survival time, dose: 0.8 mg/kg/injection, schedule: Q01DX009 (ip), vehicle: saline) was 102 % of control and the T/C (endpoint: mean survival time, dose: 1.6 mg/kg/injection, schedule: Q01DX009 (ip), vehicle: saline) was 86 % of control.
`Cc1ncc([N+](=O)[O-])n1CCO` was tested, and the T/C (endpoint: mean survival time, dose: 37.5 mg/kg/injection, schedule: Q01DX009 (ip), vehicle: Klucel (hydroxypropylcellulose) (HPC)) was 109 % of control, the T/C (endpoint: mean survival time, dose: 37.5 mg/kg/injection, schedule: Q04DX003 (ip), vehicle: Klucel (hydroxypropylcellulose) (HPC)) was 98 % of control and the T/C (endpoint: mean survival time, dose: 75.0 mg/kg/injection, schedule: Q01DX009 (ip), vehicle: Klucel (hydroxypropylcellulose) (HPC)) was 104 % of control. The T/C (endpoint: mean survival time, dose: 75.0 mg/kg/injection, schedule: Q04DX003 (ip), vehicle: Klucel (hydroxypropylcellulose) (HPC)) was 103 % of control, the T/C (endpoint: mean survival time, dose: 150.0 mg/kg/injection, schedule: Q01DX009 (ip), vehicle: Klucel (hydroxypropylcellulose) (HPC)) was 103 % of control and the T/C (endpoint: mean survival time, dose: 150.0 mg/kg/injection, schedule: Q04DX003 (ip), vehicle: Klucel (hydroxypropylcellulose) (HPC)) was 104 % of control. The T/C (endpoint: mean survival time, dose: 300.0 mg/kg/injection, schedule: Q01DX009 (ip), vehicle: Klucel (hydroxypropylcellulose) (HPC)) was 107 % of control, the T/C (endpoint: mean survival time, dose: 300.0 mg/kg/injection, schedule: Q04DX003 (ip), vehicle: Klucel (hydroxypropylcellulose) (HPC)) was 97 % of control and the T/C (endpoint: mean survival time, dose: 600.0 mg/kg/injection, schedule: Q01DX009 (ip), vehicle: Klucel (hydroxypropylcellulose) (HPC)) was 92 % of control. For the same compound, the T/C (endpoint: mean survival time, dose: 600.0 mg/kg/injection, schedule: Q04DX003 (ip), vehicle: Klucel (hydroxypropylcellulose) (HPC)) was 98 % of control.
For `[Cl][Pt+2][Cl].[NH-]c1ccc(Cl)cc1[NH-]`, the T/C (endpoint: mean survival time, dose: 2.5 mg/kg/injection, schedule: Q01DX009 (ip), vehicle: saline with Tween-80) was 113 % of control, the T/C (endpoint: mean survival time, dose: 5.0 mg/kg/injection, schedule: Q01DX009 (ip), vehicle: saline with Tween-80) was 118 % of control and the T/C (endpoint: mean survival time, dose: 40.0 mg/kg/injection, schedule: Q01DX009 (ip), vehicle: saline with Tween-80) was 179 % of control.
With `CCCN(CCC)S(=O)(=O)c1ccc(NC(=O)OC(c2ccccc2)c2ccccc2)cc1` the T/C [7] was 104 % of control, the T/C [8] was 95 % of control and the T/C [9] was 93 % of control.
For `C=CCCCCCCCCC(=O)NCCCC(OCC)OCC`, the T/C [4] was 100 % of control, the T/C [5] was 100 % of control and the T/C [6] was 98 % of control.
For `CNS(=O)(=O)c1ccc2c(c1)nc(SC)n2C`, the T/C [4] was 101 % of control, the T/C [1] was 102 % of control and the T/C [5] was 101 % of control. For the same compound, the T/C [2] was 94 % of control, the T/C [6] was 93 % of control and the T/C [3] was 95 % of control.
With `COC1(OC)C2C=CC1CC2` the T/C (endpoint: mean survival time, dose: 12.5 mg/kg/injection, schedule: Q01DX009 (ip), vehicle: saline with Tween-80) was 105 % of control, the T/C (endpoint: mean survival time, dose: 25.0 mg/kg/injection, schedule: Q01DX009 (ip), vehicle: saline with Tween-80) was 100 % of control and the T/C (endpoint: mean survival time, dose: 50.0 mg/kg/injection, schedule: Q01DX009 (ip), vehicle: saline with Tween-80) was 109 % of control. For the same compound, the T/C [4] was 103 % of control, the T/C [5] was 103 % of control and the T/C [6] was 114 % of control.
`CC1(C)OC2COC(OCc3ccccc3)C(OCc3ccccc3)C2O1` (stereo unspecified) was tested, and the T/C [4] was 104 % of control, the T/C [5] was 101 % of control and the T/C [6] was 96 % of control.
`CN(C)c1ccc(N=Nc2ccc(Cl)c(Cl)c2)cc1` was tested, and the T/C [1] was 98 % of control, the T/C [2] was 95 % of control and the T/C [3] was 96 % of control.
With `CCOC1CS(=O)(=O)CC(OCC)O1` (stereo unspecified) the T/C [1] was 101 % of control, the T/C [2] was 109 % of control and the T/C [3] was 101 % of control.
In the case of `CC(=O)NCC1CCN(C(C)=O)CC1`, the T/C [10] was 94 % of control, the T/C [11] was 96 % of control and the T/C [12] was 96 % of control.
In the case of `Cc1cc(C)c2c(C#N)cn(-c3ccccc3Cl)c2n1`, the T/C [10] was 101 % of control, the T/C [11] was 101 % of control and the T/C [12] was 97 % of control.
In the case of `CN1CC(NC(=O)N(CCCl)N=O)CC2c3cccc4[nH]cc(c34)CC21` (stereo unspecified), the T/C (endpoint: mean survival time, dose: 12.5 mg/kg/injection, schedule: Q01DX001 (ip), vehicle: other) was 119 % of control, the T/C (endpoint: mean survival time, dose: 50.0 mg/kg/injection, schedule: Q01DX001 (ip), vehicle: other) was 154 % of control and the T/C (endpoint: mean survival time, dose: 100.0 mg/kg/injection, schedule: Q01DX001 (ip), vehicle: other) was 248 % of control. For the same compound, the T/C (endpoint: mean survival time, dose: 200.0 mg/kg/injection, schedule: Q01DX001 (ip), vehicle: other) was 390 % of control and the T/C (endpoint: mean survival time, dose: 400.0 mg/kg/injection, schedule: Q01DX001 (ip), vehicle: other) was 98 % of control.
